In patent US20040009196A1, “Use of dhea and some of its derivatives in a cosmetic composition for preventing or treating dermal atrophy” (priority 2000, published 2004):

Key:
[1] = test system: skin equivalent sold by the company EPISKIN; assay: Epidermal differentiation in reconstructed epidermis: transglutaminase and filaggrin immunofluorescence, histological analysis; type: cell-based; conditions: 2 μl of DHEA at 1×10^−4 M in ethanol, topical, every 48 hours for 6 days
[2] = test system: skin equivalent sold by the company EPISKIN; assay: Topical DHEA on reconstructed epidermis: epidermal lipid analysis by HPTLC with [14C]acetate labelling; type: cell-based; conditions: 2 μl of DHEA at 1×10^−4 M in ethanol, every 48 hours for 6 days, vs ethanol control
Protocol: In this example, 2 μl of DHEA at 1×10^−4 M in ethanol were applied every 48 hours, for 6 days, to a skin equivalent sold by the company EPISKIN (LYON, France), after culturing it for 7 days and incubating overnight with [^14C]acetate (2 μCi/ml). The culture and test media are those contained in the kit sold by the supplier. The control consists of an identical epidermal equivalent undergoing a topical application of 2 μl of ethanol diluted 1/1 000.
At the end of the incubation, the epidermal equivalent is detached from its collagenic support. The preparation of the lipids of the epidermal equivalent, and their analysis by HPTLC or high performance thin-layer chromatography, are carried out according to the technique and with the buffers described by M. Ponec (1991, Adv. Lipid Res., 24: 83-117). At the end of the migration of the lipids, autoradiography of the chromatography plate is carried out overnight.

C[C@]12CC[C@H](O)CC1=CC[C@@H]1[C@@H]2CC[C@]2(C)C(=O)CC[C@@H]12 [DHEA, dehydroepiandrosterone]
histological analysis: number of granular layers or parakeratosis [1]: no increase in the number of granular layers or in parakeratosis | modification in epidermal differentiation (expression of transglutaminase and of filaggrin, immunofluorescence labelling) [1]: no modification in epidermal differentiation | increase in the epidermal content of phospholipids compared with the control [2]: 35%
